Literature values in publication PMC7898037, “Improving mitochondria and ER stability helps eliminate upper motor neuron degeneration that occurs due to mSOD1 toxicity and TDP‐43 pathology” (Clinical and Translational Medicine, 2021).

What was measured:
[1] = test system: SOD1 model mouse; conditions: cited from earlier work
[2] = test system: SOD1^G93A‐expressing PC12 cell; conditions: PC12 cell‐based assay; cited from earlier work
[3] = test system: cortical neurons; design: method as in earlier work; conditions: ref 53 (compound 2), ref 54 (NU‐9); cited from earlier work

SMILES: Nc1nc2ccc(OC(F)(F)F)cc2s1 [riluzole]
- longevity of the misfolded SOD1 (mSOD1) mouse model [1]: failed to improve the longevity

SMILES: O=C1CC(=O)CC(c2ccc(F)cc2)C1 [compound 1]
- effect on mSOD1‐induced protein aggregation [2]: inhibit mSOD1‐induced protein aggregation
- effect on mSOD1‐mediated toxicity [2]: reduce mSOD1‐mediated toxicity

SMILES: O=C1CC(=O)CC(c2cc(C(F)(F)F)cc(C(F)(F)F)c2)C1 [compound 2]
- penetration into neurons [3]: did not penetrate into neurons
